Laboratory results published in patent US9387204B2, “Fused bicyclic imidazoles” (BAYER INTELLECTUAL PROPERTY GmbH, priority 2007, dated 2016).

tested on: A549 cells; assay: Cellular proliferation/cytotoxicity assay (Alamar Blue), A549 cells; conditions: Homo sapiens, A549, 72 h, read-out: Anti-proliferative/Cytotoxic activity (A549 cells)
Protocol: The anti-proliferative activity of the compounds as described herein, is evaluated using the OvCAR3, HCT116 and A549 cell lines and the Alamar Blue (Resazurin) cell viability assay (O'Brien et al. Eur J Biochem 267, 5421-5426, 2000). Resazurin is reduced to the fluorescent resorufin by cellular dehydrogenase activity, correlating with viable, proliferating cells. Test compounds are dissolved as 10 mM solutions in DMSO and subsequently diluted. Cells like HCT116 or A549 cells were seeded into 96 well flat bottom plates at a density of 10000 cells/well (OvCAR3 cells), 1000 cells/well (HCT116 cells) or 2000 cells/well (A549 cells) in a volume of 200 μl/well. 24 hours after seeding, 1 μl each of the compound dilutions are added into each well of the 96 well plates. Each compound dilution is tested as at least as duplicates. Wells containing untreated control cells were filled with 200 μl DMEM (Dulbecco's Modified Eagle Medium) containing 0.5 vol % v:v DMSO. The cells are then incubated with the substances for 72 h at 37° C. in a humidified atmosphere containing 5 vol % CO2. To determine the viability of the cells, 20 μl of a Resazurin solution (90 mg/l) are added. After 4 h incubation at 37° C., the fluorescence is measured by extinction at ? =544 nm and an emission of ? =590 nm (Wallac Victor2; Perkin Elmer, USA). For the calculation of the cell viability, the emission value from untreated cells is set as 100% viability and the fluorescence intensity of treated cells are set in relation to the values of untreated cells. Viabilities are expressed as % values. The corresponding IC50 values of the compounds for cytotoxic activity are determined from the concentration-effect curves by means of non-linear regression. The analysis of the data is performed using a biostatistical program (Graph Pad Prism, USA).

Going from `CCc1nn2c(-c3ccccc3)c(-c3ccc(CN4CCC(c5nnc(-c6ccccn6)[nH]5)CC4)cc3)nc2s1` [Example 51, 2-ethyl-5-phenyl-6-(4-{[4-(5-pyridin-2-yl-4H-1,2,4-triazol-3-yl)piperidin-1-yl]methyl}phenyl)imidazo[2,1-b][1,3,4]thiadiazole] to `FC(F)(F)c1nn2c(-c3ccccc3)c(-c3ccc(CN4CCC(c5nnc(-c6ccccn6)[nH]5)CC4)cc3)nc2s1` [Example 48, 5-phenyl-6-[4-({4-[5-(pyridin-2-yl)-4H-1,2,4-triazol-3-yl]piperidin-1-yl}methyl)phenyl]-2-(trifluoromethyl)imidazo[2,1-b][1,3,4]thiadiazole], the IC50 rises from < 10 µM to > 10 µM.

`c1ccc(-c2c(-c3ccc(CN4CCC(c5nc(-c6cnccn6)no5)CC4)cc3)nc3ncccn23)cc1` [Example 4, 3-phenyl-2-(4-{[4-(3-pyrazin-2-yl-1,2,4-oxadiazol-5-yl)piperidin-1-yl]methyl}phenyl)imidazo[1,2-a]pyrimidine] and `c1ccc(-c2c(-c3ccc(CN4CCC(c5n[nH]c(-c6ccccn6)n5)CC4)cc3)nc3ncccn23)cc1` [Example 1, 3-phenyl-2-(4-{[4-(5-pyridin-2-yl-1,2,4-triazol-3-yl)piperidin-1-yl]methyl}phenyl)imidazo[1,2-a]pyrimidine] cannot be ordered by IC50: > 10 µM for the first, > 10 µM for the second.

`Brc1cnc2nc(-c3ccc(CN4CCC(c5n[nH]c(-c6ccccn6)n5)CC4)cc3)c(-c3ccccc3)n2c1` [Example 12, 6-bromo-3-phenyl-2-(4-{[4-(5-pyridin-2-yl-1,2,4-triazol-3-yl)piperidin-1-yl]methyl}phenyl)imidazo[1,2-a]pyrimidine] and `c1ccc(-c2c(-c3ccc(CN4CCC(c5n[nH]c(-c6ccccn6)n5)CC4)cc3)nc3scnn23)cc1` [Example 11, 5-phenyl-6-(4-{[4-(5-pyridin-2-yl-1,2,4-triazol-3-yl)piperidin-1-yl]methyl}phenyl)imidazo[2,1-b][1,3,4]thiadiazole] cannot be ordered by IC50: < 10 µM for the first, < 10 µM for the second.

Going from `COc1cccn2c(-c3ccccc3)c(-c3ccc(CN4CCC(c5n[nH]c(-c6ccccn6)n5)CC4)cc3)nc12` [Example 13, 8-methoxy-3-phenyl-2-(4-{[4-(5-pyridin-2-yl-1,2,4-triazol-3-yl)piperidin-1-yl]methyl}phenyl)imidazo[1,2-a]pyridine] to `Fc1ccc(-c2c(-c3ccc(CN4CCC(c5n[nH]c(-c6ccccn6)n5)CC4)cc3)nc3ncccn23)cc1` [Example 18, 3-(4-fluorophenyl)-2-(4-{[4-(5-pyridin-2-yl-1,2,4-triazol-3-yl)piperidin-1-yl]methyl}phenyl)imidazo[1,2-a]pyrimidine], the IC50 rises from < 10 µM to > 10 µM. The first is the more potent here.

`c1ccc(-c2nnc(C3CCN(Cc4ccc(-c5nc6ncccn6c5-c5ccccc5)cc4)CC3)[nH]2)cc1` [Example 121, 3-phenyl-2-(4-{[4-(5-phenyl-4H-1,2,4-triazol-3-yl)piperidin-1-yl]methyl}phenyl)imidazo[1,2-a]pyrimidine] and `c1ccc(-c2nnc(C3CCN(Cc4ccc(-c5nc6sccn6c5-c5ccccc5)cc4)CC3)[nH]2)cc1` [Example 122, 5-phenyl-6-(4-{[4-(5-phenyl-4H-1,2,4-triazol-3-yl)piperidin-1-yl]methyl}phenyl)imidazo[2,1-b][1,3]thiazole] cannot be ordered by IC50: < 10 µM for the first, < 10 µM for the second.

Compared with `Cc1ccn2c(-c3ccccc3)c(-c3ccc(CN4CCC(c5nnc(-c6ccccn6)[nH]5)CC4)cc3)nc2c1` [Example 50, 7-methyl-3-phenyl-2-[4-({4-[5-(pyridin-2-yl)-4H-1,2,4-triazol-3-yl]piperidin-1-yl}methyl)phenyl]imidazo[1,2-a]pyridine], `c1ccc(-c2nc(C3CCN(Cc4ccc(-c5nc6ccccn6c5-c5cccs5)cc4)CC3)n[nH]2)nc1` [Example 17, 2-(4-{[4-(5-pyridin-2-yl-1,2,4-triazol-3-yl)piperidin-1-yl]methyl}phenyl)-3-(2-thienyl)imidazo[1,2-a]pyridine] is lower in IC50: > 10 µM for the first, < 10 µM for the second.

For `c1ccc(-c2nc(C3CCN(Cc4ccc(-c5nc6ncccn6c5-c5ccncc5)cc4)CC3)n[nH]2)nc1` [Example 36, 3-pyridin-4-yl-2-(4-{[4-(5-pyridin-2-yl-1,2,4-triazol-3-yl)piperidin-1-yl]methyl}phenyl)imidazo[1,2-a]pyrimidine], the IC50 was > 10 µM.

same assay, conditions: read-out: Anti-proliferative/Cytotoxic activity (A549 cells); A549 cells, 72 h, Alamar Blue (Resazurin)

`c1ccc(-c2c(-c3ccc(CN4CCC(c5nnc(-c6ccncc6)[nH]5)CC4)cc3)nc3sccn23)cc1` [Example 56, ′5-phenyl-6-(4-{[4-(5-pyridin-4-yl-4H-1,2,4-triazol-3-yl)piperidin-1-yl]methyl}phenyl)imidazo[2,1-b][1,3]thiazole] and `c1ccc(-c2c(-c3ccc(CN4CCC(c5nnc(-c6ccncc6)[nH]5)CC4)cc3)nc3scnn23)cc1` [Example 60, ′5-phenyl-6-(4-{[4-(5-pyridin-4-yl-4H-1,2,4-triazol-3-yl)piperidin-1-yl]methyl}phenyl)imidazo[2,1-b][1,3,4]thiadiazole] cannot be ordered by IC50: < 10 µM for the first, < 10 µM for the second.

`N#Cc1ccn2c(-c3ccccc3)c(-c3ccc(CN4CCC(c5nnc(-c6ccco6)[nH]5)CC4)cc3)nc2c1` [Example 96, ′2-[4-({4-[5-(2-furyl)-4H-1,2,4-triazol-3-yl]piperidin-1-yl}methyl)phenyl]-3-phenylimidazo[1,2-a]pyridine-7-carbonitrile] and `c1ccc(-c2c(-c3ccc(CN4CCC(c5nnc(-c6ccco6)[nH]5)CC4)cc3)nc3ccccn23)cc1` [Example 91, ′2-[4-({4-[5-(2-furyl)-4H-1,2,4-triazol-3-yl]piperidin-1-yl}methyl)phenyl]-3-phenylimidazo[1,2-a]pyridine] cannot be ordered by IC50: < 10 µM for the first, < 10 µM for the second.

`c1ccc(-c2c(-c3ccc(CN4CCC(c5nnc(-c6cccs6)[nH]5)CC4)cc3)nc3sccn23)cc1` [Example 100, ′5-phenyl-6-[4-({4-[5-(2-thienyl)-4H-1,2,4-triazol-3-yl]piperidin-1-yl}methyl)phenyl]imidazo[2,1-b][1,3]thiazole] and `c1ccc(-c2c(-c3ccc(CN4CCC(c5nnc(-c6nccs6)[nH]5)CC4)cc3)nc3sccn23)cc1` [Example 87, ′5-phenyl-6-[4-({4-[5-(1,3-thiazol-2-yl)-4H-1,2,4-triazol-3-yl]piperidin-1-yl}methyl)phenyl]imidazo[2,1-b][1,3]thiazole] cannot be ordered by IC50: < 10 µM for the first, < 10 µM for the second.

`N#Cc1cccn2c(-c3ccccc3)c(-c3ccc(CN4CCC(c5n[nH]c(-c6ccc(Cl)cn6)n5)CC4)cc3)nc12` [Example 75, ′2-[4-({4-[5-(5-chloropyridin-2-yl)-1H-1,2,4-triazol-3-yl]piperidin-1-yl}methyl)phenyl]-3-phenylimidazo[1,2-a]pyridine-8-carbonitrile] and `N#Cc1cccn2c(-c3ccccc3)c(-c3ccc(CN4CCC(c5nnc(-c6ccco6)[nH]5)CC4)cc3)nc12` [Example 90, ′2-[4-({4-[5-(2-furyl)-4H-1,2,4-triazol-3-yl]piperidin-1-yl}methyl)phenyl]-3-phenylimidazo[1,2-a]pyridine-8-carbonitrile] cannot be ordered by IC50: > 10 µM for the first, > 10 µM for the second.

Compared with `c1ccc(-c2c(-c3ccc(CN4CCC(c5nnc(-c6ccc[nH]6)[nH]5)CC4)cc3)nc3sccn23)cc1` [Example 109, ′5-phenyl-6-[4-({4-[5-(1H-pyrrol-2-yl)-4H-1,2,4-triazol-3-yl]piperidin-1-yl}methyl)phenyl]imidazo[2,1-b][1,3]thiazole], `c1ccc(-c2c(-c3ccc(CN4CCC(c5nnc(-c6ncccn6)[nH]5)CC4)cc3)nc3sccn23)cc1` [Example 81, ′5-phenyl-6-(4-{[4-(5-pyrimidin-2-yl-4H-1,2,4-triazol-3-yl)piperidin-1-yl]methyl}phenyl)imidazo[2,1-b][1,3]thiazole] is higher in IC50: < 10 µM for the first, > 10 µM for the second.

First: N#Cc1ccn2c(-c3ccccc3)c(-c3ccc(CN4CCC(c5nnc(-c6ccccn6)[nH]5)CC4)cc3)nc2c1 [Example 114, ′3-phenyl-2-(4-{[4-(5-pyridin-2-yl-4H-1,2,4-triazol-3-yl)piperidin-1-yl]methyl}phenyl)imidazo[1,2-a]pyridine-7-carbonitrile]
Second: N#Cc1cc2nc(-c3ccc(CN4CCC(c5nnc(-c6ccccn6)[nH]5)CC4)cc3)c(-c3ccccc3)n2cc1Br [Example 52, ′6-bromo-3-phenyl-2-(4-{[4-(5-pyridin-2-yl-4H-1,2,4-triazol-3-yl)piperidin-1-yl]methyl}phenyl)imidazo[1,2-a]pyridine-7-carbonitrile]
The IC50 of the first is lower: < 10 µM for the first, > 10 µM for the second. The first is the more potent here.

`Cc1ccc(-c2nnc(C3CCN(Cc4ccc(-c5nc6sccn6c5-c5ccccc5)cc4)CC3)[nH]2)nc1` [Example 73, ′6-[4-({4-[5-(5-methylpyridin-2-yl)-4H-1,2,4-triazol-3-yl]piperidin-1-yl}methyl)phenyl]-5-phenylimidazo[2,1-b][1,3]thiazole] and `Cc1ccc(-c2nnc(C3CCN(Cc4ccc(-c5nc6ncccn6c5-c5ccccc5)cc4)CC3)[nH]2)nc1` [Example 70, ′2-[4-({4-[5-(5-methylpyridin-2-yl)-4H-1,2,4-triazol-3-yl]piperidin-1-yl}methyl)phenyl]-3-phenylimidazo[1,2-a]pyrimidine] cannot be ordered by IC50: < 10 µM for the first, < 10 µM for the second.

Compared with `c1ccc(-c2c(-c3ccc(CN4CCC(c5n[nH]c(-c6ncccn6)n5)CC4)cc3)nc3ncccn23)cc1` [Example 79, ′3-phenyl-2-(4-{[4-(5-pyrimidin-2-yl-1H-1,2,4-triazol-3-yl)piperidin-1-yl]methyl}phenyl)imidazo[1,2-a]pyrimidine], `c1ccc(-c2c(-c3ccc(CN4CCC(c5n[nH]c(-c6nccs6)n5)CC4)cc3)nc3scnn23)cc1` [Example 88, ′5-phenyl-6-[4-({4-[5-(1,3-thiazol-2-yl)-1H-1,2,4-triazol-3-yl]piperidin-1-yl}methyl)phenyl]imidazo[2,1-b][1,3,4]thiadiazole] is lower in IC50: > 10 µM for the first, < 10 µM for the second.

`Cc1ccc2nc(-c3ccc(CN4CCC(c5nnc(-c6ccccn6)[nH]5)CC4)cc3)c(-c3ccccc3)n2n1` [Example 53, ′6-methyl-3-phenyl-2-(4-{[4-(5-pyridin-2-yl-4H-1,2,4-triazol-3-yl)piperidin-1-yl]methyl}phenyl)imidazo[1,2-b]pyridazine] and `c1ccc(-c2c(-c3ccc(CN4CCC(c5cc(-c6ccccn6)[nH]n5)CC4)cc3)nc3scnn23)cc1` [Example 112, ′5-phenyl-6-(4-{[4-(5-pyridin-2-yl-1H-pyrazol-3-yl)piperidin-1-yl]methyl}phenyl)imidazo[2,1-b][1,3,4]thiadiazole] cannot be ordered by IC50: < 10 µM for the first, < 10 µM for the second.
